From the NIST ThermoML archive (doi:10.1021/acs.jced.5b01031)
“And” between values parts separate entries of the source, which are not always exact repeats. Equal values may be shown once. Numbers after ± are expanded uncertainties.

Test: mn = molality of the nth substance listed, in mol/kg
Settings: 81.5 kPa, Liquid; for mass density: Vibrating tube method; for viscosity: Capillary tube (Ostwald / Ubbelohde) method

`NCC(=O)O` [2-aminoacetic acid] + O gave a mass density (303.15 K, m1 = 0.1001) of 998.79 ± 0.3 kg/m3, a mass density (303.15 K, m1 = 0.1498) of 1000.34 ± 0.3 kg/m3 and a mass density (303.15 K, m1 = 0.1998) of 1001.88 ± 0.3 kg/m3. It also gave a mass density (303.15 K, m1 = 0.2497) of 1003.42 ± 0.3 kg/m3, a mass density (303.15 K, m1 = 0.2999) of 1004.95 ± 0.3 kg/m3 and a mass density (303.15 K, m1 = 0.3502) of 1006.44 ± 0.3 kg/m3. The mass density (303.15 K, m1 = 0.4005) was 1007.94 ± 0.3 kg/m3, the mass density (303.15 K, m1 = 0.45) was 1009.44 ± 0.3 kg/m3 and the mass density (303.15 K, m1 = 0.4993) was 1010.87 ± 0.3 kg/m3. For the same molecule, the mass density (308.15 K, m1 = 0.1001) was 997.12 ± 0.3 kg/m3, the mass density (308.15 K, m1 = 0.1998) was 1000.16 ± 0.3 kg/m3 and the mass density (308.15 K, m1 = 0.2497) was 1001.68 ± 0.3 kg/m3. For the same molecule, the mass density (308.15 K, m1 = 0.2999) was 1003.19 ± 0.3 kg/m3, the mass density (308.15 K, m1 = 0.3502) was 1004.66 ± 0.3 kg/m3 and the mass density (308.15 K, m1 = 0.4005) was 1006.15 ± 0.3 kg/m3. The mass density (308.15 K, m1 = 0.45) was 1007.62 ± 0.3 kg/m3, the mass density (308.15 K, m1 = 0.4993) was 1009.05 ± 0.3 kg/m3 and the mass density (313.15 K, m1 = 0.1001) was 995.14 ± 0.3 kg/m3. The mass density (313.15 K, m1 = 0.1498) was 996.61 ± 0.3 kg/m3, the mass density (313.15 K, m1 = 0.1998) was 998.06 ± 0.3 kg/m3 and the mass density (313.15 K, m1 = 0.2497) was 999.5 ± 0.3 kg/m3. For the same molecule, the mass density (313.15 K, m1 = 0.2999) was 1000.94 ± 0.3 kg/m3, the mass density (313.15 K, m1 = 0.3502) was 1002.34 ± 0.3 kg/m3 and the mass density (313.15 K, m1 = 0.4005) was 1003.74 ± 0.3 kg/m3. The mass density (313.15 K, m1 = 0.45) was 1005.12 ± 0.3 kg/m3 and the mass density (313.15 K, m1 = 0.4993) was 1006.46 ± 0.3 kg/m3.
`C[C@H](N)C(=O)O` [(S)-2-aminopropanoic acid] + O gave a mass density (303.15 K, m1 = 0.1001) of 998.46 ± 0.3 kg/m3, a mass density (303.15 K, m1 = 0.1501) of 999.85 ± 0.3 kg/m3 and a mass density (303.15 K, m1 = 0.1998) of 1001.23 ± 0.3 kg/m3. For the same molecule, the mass density (303.15 K, m1 = 0.2502) was 1002.6 ± 0.3 kg/m3, the mass density (303.15 K, m1 = 0.3) was 1003.96 ± 0.3 kg/m3 and the mass density (303.15 K, m1 = 0.3501) was 1005.32 ± 0.3 kg/m3. It also gave a mass density (303.15 K, m1 = 0.3986) of 1006.62 ± 0.3 kg/m3, a mass density (303.15 K, m1 = 0.4493) of 1007.97 ± 0.3 kg/m3 and a mass density (303.15 K, m1 = 0.4994) of 1009.28 ± 0.3 kg/m3. It also gave a mass density (308.15 K, m1 = 0.1001) of 996.83 ± 0.3 kg/m3, a mass density (308.15 K, m1 = 0.1501) of 998.21 ± 0.3 kg/m3 and a mass density (308.15 K, m1 = 0.1998) of 999.58 ± 0.3 kg/m3. The mass density (308.15 K, m1 = 0.2502) was 1000.94 ± 0.3 kg/m3, the mass density (308.15 K, m1 = 0.3) was 1002.29 ± 0.3 kg/m3 and the mass density (308.15 K, m1 = 0.3501) was 1003.64 ± 0.3 kg/m3. For the same molecule, the mass density (308.15 K, m1 = 0.3986) was 1004.93 ± 0.3 kg/m3, the mass density (308.15 K, m1 = 0.4493) was 1006.27 ± 0.3 kg/m3 and the mass density (308.15 K, m1 = 0.4994) was 1007.56 ± 0.3 kg/m3. The mass density (313.15 K, m1 = 0.1001) was 995 ± 0.3 kg/m3, the mass density (313.15 K, m1 = 0.1501) was 996.39 ± 0.3 kg/m3 and the mass density (313.15 K, m1 = 0.1998) was 997.76 ± 0.3 kg/m3. It also gave a mass density (313.15 K, m1 = 0.2502) of 999.11 ± 0.3 kg/m3, a mass density (313.15 K, m1 = 0.3) of 1000.45 ± 0.3 kg/m3 and a mass density (313.15 K, m1 = 0.3501) of 1001.77 ± 0.3 kg/m3. The mass density (313.15 K, m1 = 0.3986) was 1003.07 ± 0.3 kg/m3, the mass density (313.15 K, m1 = 0.4493) was 1004.36 ± 0.3 kg/m3 and the mass density (313.15 K, m1 = 0.4994) was 1005.62 ± 0.3 kg/m3.
In the case of `CC(C)[C@H](N)C(=O)O` [L-valine] + O, the mass density (303.15 K, m1 = 0.1004) is reported as 998.27 ± 0.3 kg/m3, the mass density (303.15 K, m1 = 0.1489) is reported as 999.57 ± 0.3 kg/m3 and the mass density (303.15 K, m1 = 0.1996) is reported as 1000.84 ± 0.3 kg/m3. It also gave a mass density (303.15 K, m1 = 0.2497) of 1002.1 ± 0.3 kg/m3, a mass density (303.15 K, m1 = 0.3001) of 1003.33 ± 0.3 kg/m3 and a mass density (303.15 K, m1 = 0.3488) of 1004.55 ± 0.3 kg/m3. For the same molecule, the mass density (303.15 K, m1 = 0.3995) was 1005.74 ± 0.3 kg/m3, the mass density (303.15 K, m1 = 0.4501) was 1006.93 ± 0.3 kg/m3 and the mass density (303.15 K, m1 = 0.4989) was 1008.09 ± 0.3 kg/m3. For the same molecule, the mass density (308.15 K, m1 = 0.1004) was 996.63 ± 0.3 kg/m3, the mass density (308.15 K, m1 = 0.1489) was 997.9 ± 0.3 kg/m3 and the mass density (308.15 K, m1 = 0.1996) was 999.16 ± 0.3 kg/m3. The mass density (308.15 K, m1 = 0.2497) was 1000.41 ± 0.3 kg/m3, the mass density (308.15 K, m1 = 0.3001) was 1001.63 ± 0.3 kg/m3 and the mass density (308.15 K, m1 = 0.3488) was 1002.84 ± 0.3 kg/m3. For the same molecule, the mass density (308.15 K, m1 = 0.3995) was 1004.02 ± 0.3 kg/m3, the mass density (308.15 K, m1 = 0.4501) was 1005.2 ± 0.3 kg/m3 and the mass density (308.15 K, m1 = 0.4989) was 1006.34 ± 0.3 kg/m3. It also gave a mass density (313.15 K, m1 = 0.1004) of 994.92 ± 0.3 kg/m3, a mass density (313.15 K, m1 = 0.1489) of 996.25 ± 0.3 kg/m3 and a mass density (313.15 K, m1 = 0.1996) of 997.55 ± 0.3 kg/m3. For the same molecule, the mass density (313.15 K, m1 = 0.2497) was 998.83 ± 0.3 kg/m3, the mass density (313.15 K, m1 = 0.3001) was 1000.05 ± 0.3 kg/m3 and the mass density (313.15 K, m1 = 0.3488) was 1001.27 ± 0.3 kg/m3. The mass density (313.15 K, m1 = 0.3995) was 1002.46 ± 0.3 kg/m3, the mass density (313.15 K, m1 = 0.4501) was 1003.61 ± 0.3 kg/m3 and the mass density (313.15 K, m1 = 0.4989) was 1004.75 ± 0.3 kg/m3.
In the case of `O=C([O-])c1ccccc1.[Na+]` [sodium benzoate] + O, the viscosity (303.15 K, m1 = 0.1011) is reported as 0.845 ± 0.08 mPa·s and 0.84 ± 0.08 mPa·s, the viscosity (303.15 K, m1 = 0.3088) is reported as 0.92 ± 0.08 mPa·s and 0.926 ± 0.08 mPa·s and 0.931 ± 0.08 mPa·s and the viscosity (303.15 K, m1 = 0.5245) is reported as 1.024 ± 0.08 mPa·s and 1.013 ± 0.08 mPa·s and 1.019 ± 0.08 mPa·s. The mass density (303.15 K, m1 = 0.1011) was 1001.3 ± 0.3 kg/m3 and 1001.31 ± 0.3 kg/m3, the mass density (303.15 K, m1 = 0.3088) was 1012.46 ± 0.3 kg/m3 and 1012.49 ± 0.3 kg/m3 and the mass density (303.15 K, m1 = 0.5245) was 1023.61 ± 0.3 kg/m3 and 1023.59 ± 0.3 kg/m3 and 1023.51 ± 0.3 kg/m3. For the same molecule, the viscosity (308.15 K, m1 = 0.1011) was 0.757 ± 0.08 mPa·s and 0.758 ± 0.08 mPa·s, the viscosity (308.15 K, m1 = 0.3088) was 0.821 ± 0.08 mPa·s and 0.837 ± 0.08 mPa·s and the viscosity (308.15 K, m1 = 0.5245) was 0.918 ± 0.08 mPa·s and 0.912 ± 0.08 mPa·s. The mass density (308.15 K, m1 = 0.1011) was 999.49 ± 0.3 kg/m3 and 999.34 ± 0.3 kg/m3 and 999.62 ± 0.3 kg/m3, the mass density (308.15 K, m1 = 0.3088) was 1010.59 ± 0.3 kg/m3 and 1010.54 ± 0.3 kg/m3 and 1010.6 ± 0.3 kg/m3 and the mass density (308.15 K, m1 = 0.5245) was 1021.52 ± 0.3 kg/m3 and 1021.61 ± 0.3 kg/m3 and 1021.49 ± 0.3 kg/m3. The viscosity (313.15 K, m1 = 0.1011) was 0.686 ± 0.08 mPa·s and 0.691 ± 0.08 mPa·s, the viscosity (313.15 K, m1 = 0.3088) was 0.748 ± 0.08 mPa·s and 0.753 ± 0.08 mPa·s and the viscosity (313.15 K, m1 = 0.5245) was 0.806 ± 0.08 mPa·s and 0.812 ± 0.08 mPa·s and 0.817 ± 0.08 mPa·s. The mass density (313.15 K, m1 = 0.1011) was 997.41 ± 0.3 kg/m3 and 997.51 ± 0.3 kg/m3, the mass density (313.15 K, m1 = 0.3088) was 1008.16 ± 0.3 kg/m3 and 1008.27 ± 0.3 kg/m3 and 1008.53 ± 0.3 kg/m3 and the mass density (313.15 K, m1 = 0.5245) was 1019.94 ± 0.3 kg/m3.
